Earlier results in US8109913B2, “Coiled wire for the controlled release of drugs to the eye” (DSM IP Assets B.V., priority 2005, dated 2012).

Assays:
[1] = in vivo, device loaded with atropine
[2] = in vitro

SMILES	Mydriasis [1]	Activity of the drug when released from the coating [2]
CN1[C@@H]2CC[C@H]1C[C@@H](OC(=O)C(CO)c1ccccc1)C2 (some centres unmarked) [atropine]	mydriasis can be obtained	–
N#Cc1c(N2C[C@@H]3CCCN[C@@H]3C2)c(F)cc2c(=O)c(C(=O)O)cn(C3CC3)c12 [pradofloxacin]	–	still active
